Test results: ChEMBL document CHEMBL1128127, “The design of potent and stable benzisothiazolone inhibitors of human leukocyte elastase” (Bioorg Med Chem Lett, 1995)

Key:
[1] = target: T1, Neutrophil elastase (Homo sapiens) (UniProt P08246)
T1 sequence (whole entry): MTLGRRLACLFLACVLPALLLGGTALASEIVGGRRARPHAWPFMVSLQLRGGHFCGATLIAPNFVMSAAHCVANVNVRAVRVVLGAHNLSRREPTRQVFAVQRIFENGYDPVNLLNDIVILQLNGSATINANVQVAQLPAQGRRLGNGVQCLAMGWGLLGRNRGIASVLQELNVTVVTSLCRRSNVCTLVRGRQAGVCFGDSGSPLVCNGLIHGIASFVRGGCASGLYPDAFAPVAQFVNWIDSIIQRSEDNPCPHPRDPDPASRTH
Description: (§1) Evaluated for inhibitory activity against Human leukocyte elastase (HLE)

[2] = target: T1, Neutrophil elastase (Homo sapiens); remark: listed apart in the source
Description: as §1

in vitro = details: human, blood
Description: Half-life (human blood stability)

[3] = Half-life was determined; 88% of parent remained after incubation for 120 min (human blood stability); format: ADME, tissue-based
Neutrophil elastase = target: T2, Neutrophil elastase (Homo sapiens, UniProt P08246)
T2 sequence (P08246 whole entry): T1 sequence (whole entry)
Description: Ratio of Koff to that of Kon was determined on human leukocyte elastase(HLE)

Structure (SMILES) | k off [1] [s⁻¹] | k on [2] [M⁻¹ s⁻¹] | half-life (in vitro) [min] | half-life [3] [min] | Ki (Neutrophil elastase) [nM]
CC(C)c1cccc2c1C(=O)N(COC(=O)c1c(Cl)cccc1Cl)S2(=O)=O | 2.7e-05 | 900000 | 30 | – | –
CC(C)(C)c1cccc2c1C(=O)N(CSc1nnnn1-c1ccccc1)S2(=O)=O | – | – | – | > 120 | > 2000
O=C1c2ccccc2S(=O)(=O)N1CSc1nnnn1-c1ccccc1 | – | – | < 5 | – | –
CCC(CC)c1cccc2c1C(=O)N(CSc1nnnn1-c1ccccc1)S2(=O)=O | – | – | 100 | – | –
CCCc1c(OC)c(OC)cc2c1C(=O)N(CSc1nnnn1-c1ccccc1)S2(=O)=O | 4.7e-05 | 240000 | 37 | – | 0.2
COc1cc(C(C)C)c2c(c1)S(=O)(=O)N(COC(=O)c1c(Cl)cccc1Cl)C2=O | – | – | 140 | – | –
CC(C)c1cc(F)cc2c1C(=O)N(COC(=O)c1c(Cl)cccc1Cl)S2(=O)=O | 3e-05 | 1e+06 | < 15 | – | 0.03
CCC(C)c1cccc2c1C(=O)N(CSc1nnnn1-c1ccccc1)S2(=O)=O (stereo unspecified) | – | – | 58 | – | –
CCCc1cccc2c1C(=O)N(CSc1nnnn1-c1ccccc1)S2(=O)=O | – | – | 55 | – | –
COc1cc2c(c(C(C)C)c1OC)C(=O)N(CSc1nnnn1-c1ccccc1)S2(=O)=O | 6.1e-05 | 11800 | 65 | – | 5.2
CCc1cccc2c1C(=O)N(CSc1nnnn1-c1ccccc1)S2(=O)=O | – | – | 54 | – | –
CC(C)c1cccc2c1C(=O)N(CSc1nnnn1-c1ccccc1)S2(=O)=O | – | – | 45 | – | –
CC(C)c1cc(N2CCN(C)CC2)cc2c1C(=O)N(COC(=O)c1c(Cl)cccc1Cl)S2(=O)=O | 2.4e-05 | 21500 | 110 | – | 1.1
CC(C)c1cc(N(C)C)cc2c1C(=O)N(COC(=O)c1c(Cl)cccc1Cl)S2(=O)=O | 2.7e-05 | 12300 | – | – | 2.2
